Columns and labels:
[1] = target: T1, Aurora kinase C (Homo sapiens) (UniProt Q9UQB9); assay: Inhibition of human full length AurC expressed in baculovirus assessed as substrate phosphorylation using fluorescence-labelled peptides as substrate at 0.06 uM after 90 mins by microfluidic peptide phosphorylation assay
T1 sequence (whole entry): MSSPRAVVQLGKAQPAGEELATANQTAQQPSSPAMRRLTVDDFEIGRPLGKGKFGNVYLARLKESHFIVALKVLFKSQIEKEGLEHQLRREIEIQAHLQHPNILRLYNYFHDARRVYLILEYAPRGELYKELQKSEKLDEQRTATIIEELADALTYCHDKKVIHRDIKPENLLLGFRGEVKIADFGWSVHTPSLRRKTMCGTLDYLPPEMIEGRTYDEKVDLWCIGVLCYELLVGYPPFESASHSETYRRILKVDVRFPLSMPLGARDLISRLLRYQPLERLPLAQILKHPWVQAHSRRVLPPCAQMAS

[2] = target: Tyrosine-protein kinase HCK (Homo sapiens) (UniProt P08631); assay: Inhibition of human HCK catalytic domain expressed in baculovirus assessed as substrate phosphorylation using fluorescence-labelled peptides as substrate at 0.1 uM after 90 mins by microfluidic peptide phosphorylation assay
[3] = target: Ribosomal protein S6 kinase alpha-2 (Homo sapiens) (UniProt Q15349); assay: Inhibition of human full length RSK3 expressed in baculovirus assessed as substrate phosphorylation using fluorescence-labelled peptides as substrate at 0.1 uM after 90 mins by microfluidic peptide phosphorylation assay
[4] = target: T2, cGMP-dependent protein kinase 1 (Homo sapiens) (UniProt Q13976); assay: Inhibition of human full length PKG-1a expressed in baculovirus assessed as substrate phosphorylation using fluorescence-labelled peptides as substrate at 95 uM after 90 mins by microfluidic peptide phosphorylation assay
T2 sequence (whole entry): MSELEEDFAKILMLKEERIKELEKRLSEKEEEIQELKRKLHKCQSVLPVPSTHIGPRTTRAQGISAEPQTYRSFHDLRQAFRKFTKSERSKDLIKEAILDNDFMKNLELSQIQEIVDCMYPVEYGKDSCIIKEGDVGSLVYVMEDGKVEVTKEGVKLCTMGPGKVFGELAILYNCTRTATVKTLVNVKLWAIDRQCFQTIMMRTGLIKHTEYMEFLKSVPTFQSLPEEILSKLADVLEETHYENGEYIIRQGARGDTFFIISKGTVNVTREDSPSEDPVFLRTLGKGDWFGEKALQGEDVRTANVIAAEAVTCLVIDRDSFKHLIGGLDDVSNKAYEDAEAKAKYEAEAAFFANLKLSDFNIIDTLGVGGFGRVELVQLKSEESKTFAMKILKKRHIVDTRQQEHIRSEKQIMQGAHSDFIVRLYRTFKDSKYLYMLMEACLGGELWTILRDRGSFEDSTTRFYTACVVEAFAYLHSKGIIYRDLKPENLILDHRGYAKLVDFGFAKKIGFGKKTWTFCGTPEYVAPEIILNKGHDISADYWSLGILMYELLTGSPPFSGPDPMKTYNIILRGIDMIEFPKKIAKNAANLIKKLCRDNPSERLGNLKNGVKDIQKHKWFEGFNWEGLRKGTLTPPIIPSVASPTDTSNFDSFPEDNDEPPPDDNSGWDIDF

[5] = target: T3, Calcium/calmodulin-dependent protein kinase type IV (Homo sapiens) (UniProt Q16566); assay: Inhibition of human full length CAMK4 expressed in baculovirus assessed as substrate phosphorylation using fluorescence-labelled peptides as substrate at 8 uM after 90 mins by microfluidic peptide phosphorylation assay
T3 sequence (whole entry): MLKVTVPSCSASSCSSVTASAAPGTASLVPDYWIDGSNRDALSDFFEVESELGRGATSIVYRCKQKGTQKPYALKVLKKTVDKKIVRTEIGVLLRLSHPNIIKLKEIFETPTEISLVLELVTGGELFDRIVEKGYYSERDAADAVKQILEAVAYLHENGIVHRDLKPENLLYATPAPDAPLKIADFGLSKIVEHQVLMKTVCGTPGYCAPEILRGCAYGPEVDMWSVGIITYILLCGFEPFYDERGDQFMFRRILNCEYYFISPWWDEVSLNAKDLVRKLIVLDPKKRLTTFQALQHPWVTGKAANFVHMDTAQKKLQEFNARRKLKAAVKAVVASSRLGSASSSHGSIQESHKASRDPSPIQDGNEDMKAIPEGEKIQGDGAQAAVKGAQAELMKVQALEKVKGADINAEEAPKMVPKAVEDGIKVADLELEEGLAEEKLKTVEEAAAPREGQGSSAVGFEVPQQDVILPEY

[6] = tested on: T4, Receptor-type tyrosine-protein kinase FLT3 (Homo sapiens), P36888 [D835Y]; assay: Inhibition of human FLT3 D835Y mutant catalytic domain expressed in baculovirus assessed as substrate phosphorylation using fluorescence-labelled peptides as substrate at 1000 uM after 90 mins by microfluidic peptide phosphorylation assay
T4 sequence (whole entry): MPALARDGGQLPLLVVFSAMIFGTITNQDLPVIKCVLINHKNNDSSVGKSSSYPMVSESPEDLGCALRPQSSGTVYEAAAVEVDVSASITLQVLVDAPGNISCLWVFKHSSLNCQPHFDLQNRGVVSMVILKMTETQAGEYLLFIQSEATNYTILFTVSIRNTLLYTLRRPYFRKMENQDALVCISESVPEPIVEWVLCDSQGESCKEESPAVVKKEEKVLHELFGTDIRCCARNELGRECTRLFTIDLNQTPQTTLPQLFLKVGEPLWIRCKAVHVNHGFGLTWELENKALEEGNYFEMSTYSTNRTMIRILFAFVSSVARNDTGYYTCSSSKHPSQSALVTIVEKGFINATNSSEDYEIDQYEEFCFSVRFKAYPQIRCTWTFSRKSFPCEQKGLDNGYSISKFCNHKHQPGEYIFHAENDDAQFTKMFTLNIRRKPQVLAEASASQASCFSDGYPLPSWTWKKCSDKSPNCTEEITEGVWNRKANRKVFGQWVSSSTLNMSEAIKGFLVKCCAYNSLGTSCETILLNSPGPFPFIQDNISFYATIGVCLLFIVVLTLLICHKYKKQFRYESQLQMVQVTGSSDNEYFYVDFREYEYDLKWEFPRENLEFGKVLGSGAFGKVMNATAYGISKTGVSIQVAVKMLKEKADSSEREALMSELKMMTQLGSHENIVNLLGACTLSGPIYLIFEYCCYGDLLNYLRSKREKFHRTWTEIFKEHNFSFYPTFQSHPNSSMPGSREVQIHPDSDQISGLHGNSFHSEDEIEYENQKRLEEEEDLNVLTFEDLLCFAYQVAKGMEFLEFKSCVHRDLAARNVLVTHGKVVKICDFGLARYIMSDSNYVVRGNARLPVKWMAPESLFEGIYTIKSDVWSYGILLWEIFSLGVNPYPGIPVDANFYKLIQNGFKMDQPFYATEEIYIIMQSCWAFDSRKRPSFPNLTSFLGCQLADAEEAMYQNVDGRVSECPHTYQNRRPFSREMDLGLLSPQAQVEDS

[7] = target: Fibroblast growth factor receptor 4 (Homo sapiens) (UniProt P22455); assay: Inhibition of human FGFR4 catalytic domain expressed in baculovirus assessed as substrate phosphorylation using fluorescence-labelled peptides as substrate at 2 uM after 90 mins by microfluidic peptide phosphorylation assay
Sequence of Fibroblast growth factor receptor 4 (Homo sapiens) (P22455 22-802 limits assumed): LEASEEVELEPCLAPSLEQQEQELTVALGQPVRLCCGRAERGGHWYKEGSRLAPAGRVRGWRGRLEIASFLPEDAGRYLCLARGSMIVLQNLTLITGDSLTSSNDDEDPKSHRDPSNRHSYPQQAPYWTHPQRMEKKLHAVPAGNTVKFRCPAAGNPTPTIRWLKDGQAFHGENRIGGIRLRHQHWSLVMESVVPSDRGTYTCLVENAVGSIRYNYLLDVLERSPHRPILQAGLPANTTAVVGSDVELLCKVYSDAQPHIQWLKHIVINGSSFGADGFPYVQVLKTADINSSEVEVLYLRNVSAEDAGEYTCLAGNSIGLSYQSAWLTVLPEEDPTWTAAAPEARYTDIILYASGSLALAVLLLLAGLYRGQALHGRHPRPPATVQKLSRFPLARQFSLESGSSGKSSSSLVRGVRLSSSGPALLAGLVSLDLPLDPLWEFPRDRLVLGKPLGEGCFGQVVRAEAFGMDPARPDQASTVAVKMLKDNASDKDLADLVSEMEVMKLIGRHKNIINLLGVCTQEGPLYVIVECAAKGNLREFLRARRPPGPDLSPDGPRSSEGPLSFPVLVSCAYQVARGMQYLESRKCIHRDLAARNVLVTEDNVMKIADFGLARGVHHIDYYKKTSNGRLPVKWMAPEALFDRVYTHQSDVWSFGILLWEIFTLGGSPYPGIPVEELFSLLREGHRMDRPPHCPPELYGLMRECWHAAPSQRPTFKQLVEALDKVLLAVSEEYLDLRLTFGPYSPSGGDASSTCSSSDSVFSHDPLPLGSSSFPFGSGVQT

Sequence of Ribosomal protein S6 kinase alpha-2 (Homo sapiens) (Q15349 whole entry): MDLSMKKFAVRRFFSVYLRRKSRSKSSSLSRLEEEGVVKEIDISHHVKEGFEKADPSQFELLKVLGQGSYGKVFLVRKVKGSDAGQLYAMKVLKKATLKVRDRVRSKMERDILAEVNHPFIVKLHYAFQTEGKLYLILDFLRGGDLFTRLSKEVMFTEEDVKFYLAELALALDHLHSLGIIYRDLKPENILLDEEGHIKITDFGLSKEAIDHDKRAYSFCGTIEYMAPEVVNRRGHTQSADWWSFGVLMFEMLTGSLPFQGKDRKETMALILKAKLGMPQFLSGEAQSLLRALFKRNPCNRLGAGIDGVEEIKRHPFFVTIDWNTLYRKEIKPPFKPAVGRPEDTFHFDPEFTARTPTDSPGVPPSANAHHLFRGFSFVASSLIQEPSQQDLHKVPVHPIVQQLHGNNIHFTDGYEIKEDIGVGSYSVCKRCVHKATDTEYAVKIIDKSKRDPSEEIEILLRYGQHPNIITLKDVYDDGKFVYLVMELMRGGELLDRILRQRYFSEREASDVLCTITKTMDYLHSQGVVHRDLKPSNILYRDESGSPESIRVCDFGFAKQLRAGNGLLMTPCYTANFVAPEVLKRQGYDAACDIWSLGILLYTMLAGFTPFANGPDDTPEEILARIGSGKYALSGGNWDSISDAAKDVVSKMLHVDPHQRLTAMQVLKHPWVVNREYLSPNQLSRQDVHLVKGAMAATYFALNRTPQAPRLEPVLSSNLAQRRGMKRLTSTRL
Sequence of Tyrosine-protein kinase HCK (Homo sapiens) (P08631 2-526 limits assumed): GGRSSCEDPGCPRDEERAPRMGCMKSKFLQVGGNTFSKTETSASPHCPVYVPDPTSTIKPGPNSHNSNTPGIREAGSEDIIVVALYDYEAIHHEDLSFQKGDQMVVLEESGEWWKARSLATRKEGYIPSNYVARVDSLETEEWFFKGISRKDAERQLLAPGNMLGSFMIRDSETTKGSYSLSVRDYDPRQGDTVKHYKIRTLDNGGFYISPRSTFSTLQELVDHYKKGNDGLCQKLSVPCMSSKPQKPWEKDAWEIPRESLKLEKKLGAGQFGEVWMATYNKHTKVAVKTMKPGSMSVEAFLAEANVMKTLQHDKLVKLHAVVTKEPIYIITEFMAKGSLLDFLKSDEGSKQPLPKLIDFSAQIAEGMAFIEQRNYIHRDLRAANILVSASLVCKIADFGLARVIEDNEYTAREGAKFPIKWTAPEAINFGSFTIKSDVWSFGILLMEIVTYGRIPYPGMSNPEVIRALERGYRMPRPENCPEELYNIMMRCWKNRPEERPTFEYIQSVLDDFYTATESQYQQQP

NC1(Cc2ccc(Cl)cc2)CCN(c2ncnc3[nH]ccc23)CC1
inhibition [1]: 0%

C[C@H](CN(C)C)Oc1nc(Nc2cc3cccc(Cl)c3cn2)cnc1C#N
inhibition [2]: 4% | inhibition [3]: 60.5%

NCCc1ccc(-c2ncnc3[nH]cnc23)cc1
inhibition [4]: 92%

NCC1CCN(c2ncnc3[nH]ccc23)CC1
inhibition [5]: 43%

c1cnc2[nH]ccc2c1
inhibition [6]: 76%

NC1CCN(c2ncnc3[nH]ccc23)CC1
inhibition [7]: 0%

Reference: ChEMBL document CHEMBL3132769, “Fragment growing to retain or alter the selectivity of anchored kinase hinge-binding fragments” (Medchemcomm, 2014)
